Measurements taken from patent US8455497B2, “Inhibitors of aspartyl protease” (Vertex Pharmaceuticals Incorporated, priority 1999, dated 2013).
Where two headings read alike, the source gives them in different places.

Legend:
[1] = system: EP13 multi protease inhibitor resistant virus; test: Anti-viral activity against resistant virus EP13 in MT4 cells; format: cell-based, HIV-1
Protocol: (§1) Exponentially growing MT4 cells were harvested and centrifuged at 1000 rpm for 10 min in a Jouan centrifuge (model CR 4 12). […] Cell aliquots were infected by the addition of HIV-1 (strain IIIB) diluted to give a viral multiplicity of infection of 100×TCID50. […] Cell infection was allowed to proceed for 1 hr at 37° in a tissue culture incubator with humidified 5% CO2 atmosphere. After the 1 hr incubation the virus/cell suspensions were diluted 6-fold with fresh medium, and 125 μl of the cell suspension was added to each well of the plate containing pre-diluted compound. Plates were then placed in a tissue culture incubator with humidified 5% CO2 for 5 days. At the end of the incubation period, 27 μl of 5% Nonidet-40 was added to each well of the incubation plate. After thorough mixing with a Costar multitip pipetter, 60 μl of the mixture was transferred to filter-bottomed 96-well plates. The plates were analyzed in an automated assay instrument (Screen Machine, Idexx Laboratories). The assay makes use of a propidium iodide dye to estimate the DNA content of each well.
(§2) Anti-Viral Activity Against Resistant Viruses
EP13 and DS45701, two multi protease inhibitor resistant viruses were used to assess potency against mutant viruses. These viruses contain the following mutations relative to the consensus sequence of wild type virus:
EP13: Protease amino acid sequence: M46I, L63P, A71V, V82F/L, I84V; No reverse transcriptase mutations.

HIV-1 (strain IIIB) = test: Antiviral activity assay in MT4 cells (propidium iodide based); format: cell-based
Summary of the method: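 MT4 cells infected with HIV-1 IIIB (MOI 100×TCID50, 1 hr, 37°C), diluted 6-fold into wells with serially diluted compound, incubated 5 days. Cells lysed with Nonidet-40; DNA content per well estimated by propidium iodide staining as the viability read-out, with mock-infected controls.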

[2] = system: D545701-14 multi protease inhibitor resistant virus; test: Anti-viral activity against resistant virus D545701-14 in MT4 cells; format: cell-based, HIV-1
Protocol: as §1, §2
EP13 and DS45701, two multi protease inhibitor resistant viruses were used to assess potency against mutant viruses. These viruses contain the following mutations relative to the consensus sequence of wild type virus: […]

[3] = Human immunodeficiency virus 1, MT4, read-out: EP13 mutant IC50, EP13 multi protease inhibitor resistant virus, MT4 cells
[4] = Human immunodeficiency virus 1, IIIB, wild type HIV-1 virus, MT4 cells, read-out: Wildtype virus - IC50
[5] = Human immunodeficiency virus 1, MT4, read-out: D545701-14 mutant - IC50, D545701-14 multi protease inhibitor resistant virus, MT4 cells
[6] = Human immunodeficiency virus 1, MT4, read-out: EP13 mutant IC50
[7] = Human immunodeficiency virus 1, MT4, read-out: D545701-14 mutant - IC50

In the case of CC(C)CN(C[C@@H](O)[C@H](Cc1ccc(Oc2ccc([N+](=O)[O-])cn2)cc1)NC(=O)O[C@H]1CO[C@H]2OCC[C@H]21)S(=O)(=O)c1ccc2c(c1)OCO2 [Compound 333, (3R,3aS,6aR)-hexahydrofuro[2,3-b]furan-3-yl (1S,2R)-3-[(1,3-benzodioxol-5-ylsulfonyl)(isobutyl)amino]-2-hydroxy-1-{4-[(5-nitro-2-pyridinyl)oxy]benzyl}propylcarbamate], the IC50 [1, 3] is reported as 1 to 10 nM, the IC50 (HIV-1 (strain IIIB); [4]) is reported as 1 to 10 nM and the IC50 [2, 5] is reported as 1 to 10 nM.

CC(C)CN(C[C@@H](O)[C@H](Cc1ccc(OCc2ccccn2)cc1)NC(=O)O[C@@H]1CO[C@H]2OCC[C@H]21)S(=O)(=O)c1ccc(N)cc1 [Compound 299, (3S,3aS,6aR)-hexahydrofuro[2,3-b]furan-3-yl (1S,2R)-3-[[(4-aminophenyl)sulfonyl]-(isobutyl)amino]-2-hydroxy-1-[4-(2-pyridinylmethoxy)benzyl]propylcarbamate] was tested, and the IC50 [1, 3] was 1 to 10 nM, the IC50 (HIV-1 (strain IIIB); [4]) was 1 to 10 nM and the IC50 [2, 5] was 1 to 10 nM.

CNC(=O)OCCCC(C)(C)CN(C[C@@H](O)[C@H](Cc1ccc(OCc2ccccc2)cc1)NC(=O)OC1CO[C@H]2OCC[C@@H]12)S(=O)(=O)c1ccc2c(c1)OCO2 (stereo partly shown) [Compound 361] showed an IC50 [1, 3] of 10 to 100 nM, an IC50 (HIV-1 (strain IIIB); [4]) of 1 to 10 nM and an IC50 [2, 5] of 10 to 100 nM.

CNC(=O)NCCOc1ccc(C[C@H](NC(=O)O[C@H]2CO[C@H]3OCC[C@H]32)[C@H](O)CN(CC(C)C)S(=O)(=O)c2ccc3c(c2)OCO3)cc1 [Compound 358, (3R,3aS,6aR)hexahydrofuro[2,3-b]furan-3-yl (1S,2R)-3-[(1,3-benzodioxol-5-ylsulfonyl)(isobutyl)amino]-2-hydroxy-1-[4-(2-[([methylamino]carbonyl)amino]ethoxy)benzyl]propylcarbamate] was tested, and the IC50 [1, 6] was 10 to 100 nM, the IC50 (HIV-1 (strain IIIB); [4]) was 10 to 100 nM and the IC50 [2, 7] was 10 to 100 nM.

CC(C)CN(C[C@@H](O)[C@H](Cc1ccc(Oc2ccc(C#N)cn2)cc1)NC(=O)O[C@H]1CO[C@H]2OCC[C@H]21)S(=O)(=O)c1ccc2c(c1)OCO2 [Compound 335, (3R,3aS,6aR)-hexahydrofuro[2,3-b]furan-3-yl (1S,2R)-3-[(1,3-benzodioxol-5-ylsulfonyl)(isobutyl)amino]-1-{4-[(S-cyano-2-pyridinyl)oxy]benzyl}-2-hydroxypropylcarbamate] showed an IC50 [1, 3] of 1 to 10 nM, an IC50 (HIV-1 (strain IIIB); [4]) of 1 to 10 nM and an IC50 [2, 5] of 1 to 10 nM.

Compound CC(C)CN(C[C@@H](O)[C@H](Cc1ccc(Oc2nc(F)c(F)c(F)c2F)cc1)NC(=O)O[C@H]1CO[C@H]2OCC[C@H]21)S(=O)(=O)c1ccc2c(c1)OCO2 [Compound 332, (3R,3aS,6aR)-hexahydrofuro[2,3-b]furan-3-yl (1S,2R)-3-[(1,3-benzodioxol-5-ylsulfonyl)(isobutyl)amino]-2-hydroxy-1-{4-[(3,4,5,6-tetrafluoro-2-pyridinyl)oxy]benzyl}propylcarbamate] has an IC50 [1, 3] of 1 to 10 nM, an IC50 (HIV-1 (strain IIIB); [4]) of 1 to 10 nM and an IC50 [2, 5] of 10 to 100 nM.

In the case of CCOC(=O)COc1ccc(C[C@H](NC(=O)O[C@H]2CO[C@H]3OCC[C@H]32)[C@H](O)CN(CC(C)C)S(=O)(=O)c2ccc3c(c2)OCO3)cc1 [Compound 326, Ethyl (4-{(2S,3R)-2-({[(3R,3aS,6aR)-hexahydrofuro[2,3-b]furan-3-yloxy]carbonyl}amino)-4-[(1,3-benzodioxol-5-ylsulfonyl)(isobutyl)amino]-3-hydroxybutyl}phenoxy) acetate], the IC50 [1, 3] is reported as 10 to 100 nM, the IC50 (HIV-1 (strain IIIB); [4]) is reported as 1 to 10 nM and the IC50 [2, 5] is reported as 10 to 100 nM.

With CC(C)CN(C[C@@H](O)[C@H](Cc1ccc(OCc2ccc3ccccc3c2)cc1)NC(=O)O[C@H]1CO[C@H]2OCC[C@H]21)S(=O)(=O)c1ccc2c(c1)OCO2 [Compound 376, (3R,3aS,6aR)-hexahydrofuro[2,3-b]furan-3-yl (1S,2R)-3-[(1,3-benzodioxol-5-ylsulfonyl)(isobutyl)amino]-2-hydroxy-1-[4-(2-naphthylmethoxy)benzyl]propylcarbamate] the IC50 [1, 3] was 10 to 100 nM, the IC50 (HIV-1 (strain IIIB); [4]) was 1 to 10 nM and the IC50 [2, 5] was 10 to 100 nM.

CC(=O)Oc1ccc(S(=O)(=O)N(CC(C)C)C[C@@H](O)[C@H](Cc2ccc(OCc3ccccn3)cc2)NC(=O)O[C@H]2COC3OCC[C@H]32)cc1C (stereo partly shown) [Compound 294] showed an IC50 [1, 3] of 1 to 10 nM, an IC50 (HIV-1 (strain IIIB); [4]) of 1 to 10 nM and an IC50 [2, 5] of 1 to 10 nM.

CC(C)CN(C[C@@H](O)[C@H](Cc1ccc(OCc2ccc(F)c(F)c2)cc1)NC(=O)O[C@H]1CO[C@H]2OCC[C@H]21)S(=O)(=O)c1ccc2c(c1)OCO2 [Compound 379, (3R,3aS,6aR)-hexahydrofuro[2,3-b]furan-3-yl (1S,2R)-3[(1,3-benzodioxol-5-ylsulfonyl)(isobutyl)amino]-1-{4-[(3,4-difluorobenzyl)oxy]benzyl}-2-hydroxypropylcarbamate] was tested, and the IC50 [1, 3] was 1 to 10 nM, the IC50 (HIV-1 (strain IIIB); [4]) was 1 to 10 nM and the IC50 [2, 5] was 1 to 10 nM.

For CC(C)CN(C[C@@H](O)[C@H](Cc1ccc(OCCN(C)C)cc1)NC(=O)O[C@H]1CO[C@H]2OCC[C@H]21)S(=O)(=O)c1ccc2c(c1)OCO2 [Compound 359, (3R,3aS,6aR)hexahydrofuro[2,3-b]furan-3-yl (1S,2R)-3-[(1,3-benzodioxol-5-ylsulfonyl)(isobutyl)amino]-2-hydroxy-1-[4-(2-[dimethylamino]ethoxy)benzyl]propylcarbamate], the IC50 [1, 3] was 10 to 100 nM, the IC50 (HIV-1 (strain IIIB); [4]) was 10 to 100 nM and the IC50 [2, 5] was 10 to 100 nM.

Work on CC(=O)NCCCOc1ccc(C[C@H](NC(=O)O[C@H]2CO[C@H]3OCC[C@H]32)[C@H](O)CN(CC(C)C)S(=O)(=O)c2ccc3c(c2)OCO3)cc1 [Compound 229] yielded an IC50 ([1]; EP13 multi protease inhibitor resistant virus, MT4 cells, read-out: EP13 mutant IC50) of 1 to 10 nM, an IC50 (HIV-1 (strain IIIB); wild type HIV-1 virus, MT4 cells, read-out: Wildtype virus - IC50) of 10 to 100 nM and an IC50 ([2]; D545701-14 multi protease inhibitor resistant virus, MT4 cells, read-out: D545701-14 mutant - IC50) of 1 to 10 nM.

In the case of COC(=O)NCCOc1ccc(C[C@H](NC(=O)O[C@H]2CO[C@H]3OCC[C@H]32)[C@H](O)CN(CC(C)C)S(=O)(=O)c2ccc3c(c2)OCO3)cc1 [Compound 226, (3R,3aS,6aR)-hexahydrofuro[2,3-b]furan-3-yl (1S,2R)-3-[(1,3-benzodioxol-5-ylsulfonyl)(isobutyl)amino]-2-hydroxy-1-(4-{2-[(methoxycarbonyl)amino]ethoxy}benzyl)propylcarbamate], the IC50 [1, 6] is reported as < 1 nM, the IC50 (HIV-1 (strain IIIB); [4]) is reported as < 1 nM and the IC50 [2, 7] is reported as 1 to 10 nM.

With CC(C)CN(C[C@@H](O)[C@H](Cc1ccc(OCc2ccncc2)cc1)NC(=O)O[C@H]1CO[C@H]2OCC[C@H]21)S(=O)(=O)c1ccc2c(c1)OCO2 [Compound 54, Bis-THF Methylenedioxybenzenesulfonamide 4-picolyl Tethered Product] the IC50 [1, 3] was 1 to 10 nM, the IC50 (HIV-1 (strain IIIB); [4]) was 10 to 100 nM and the IC50 (HIV-1 (strain IIIB); Human immunodeficiency virus 1, MT4, 120 h, MT-4 cells, HIV-1 strain IIIB, 5 days, read-out: IC50 (Antiviral Activity of Compounds of the Invention)) was 1 to 10 nM. The IC50 [2, 5] was 1 to 10 nM.

CC(C)CN(C[C@@H](O)[C@H](Cc1ccc(OCc2nnsc2Cl)cc1)NC(=O)O[C@H]1CO[C@H]2OCC[C@H]21)S(=O)(=O)c1ccc2c(c1)OCO2 [Compound 386, (3R,3aS,6aR)-hexahydrofuro[2,3-b]furan-3-yl (1S,2R)-3-[(1,3-benzodioxol-5-ylsulfonyl)(isobutyl)amino]-1-{4-[(5-chloro-1,2,3-thiadiazol-4-yl)methoxy]benzyl}-2-hydroxypropylcarbamate] showed an IC50 [1, 3] of 1 to 10 nM, an IC50 (HIV-1 (strain IIIB); [4]) of 1 to 10 nM and an IC50 [2, 5] of 10 to 100 nM.

Work on Cc1noc(C)c1-c1nc(COc2ccc(C[C@H](NC(=O)O[C@H]3CO[C@H]4OCC[C@H]43)[C@H](O)CN(CC(C)C)S(=O)(=O)c3ccc4c(c3)OCO4)cc2)no1 [Compound 389, (3R,3aS,6aR)-hexahydrofuro[2,3-b]furan-3-yl (1S,2R)-3-[(1,3-benzodioxol-5-ylsulfonyl)(isobutyl)amino]-1-(4-{[5-(3,5-dimethyl-4-isoxazolyl)-1,2,4-oxadiazol-3-yl]methoxy}benzyl)-2-hydroxypropylcarbamate] yielded an IC50 [1, 3] of 1 to 10 nM, an IC50 (HIV-1 (strain IIIB); [4]) of 1 to 10 nM and an IC50 [2, 5] of 1 to 10 nM.

For CC(C)CN(C[C@@H](O)[C@H](Cc1ccc(OCCCO)cc1)NC(=O)O[C@H]1CO[C@H]2OCC[C@H]21)S(=O)(=O)c1ccc2c(c1)OCO2 [Compound 319, (3R,3aS,6aR)-Hexahydrofuro[2,3-b]furan-3-yl (1S,2R)-3-[(1,3-benzodioxol-5-ylsulfonyl)(isobutyl)amino]-2-hydroxy-1-[4-(3-hydroxypropoxy)benzyl]propylcarbamate], the IC50 [1, 3] was 1 to 10 nM, the IC50 (HIV-1 (strain IIIB); [4]) was 1 to 10 nM and the IC50 [2, 5] was 1 to 10 nM.
